According to patent US12410147B2, “Surfactants” (Imperial College Innovations Limited, priority 2020, dated 2025):

Assays:
[1] = Solubility study in water (ISO standard 6839); assay type: physicochemical; settings: for solubility in water (concentration solubilized): room temperature
Method: 10 ml of solution was poured into a 20 ml vial and allowed to cool until precipitation was observed. Other 10 ml of solution was poured into a 20 ml vial and kept at a higher temperature. The precipitated sample was slowly heated and the clear sample was slowly cooled. The temperature at which an appearance change occurred was considered the temperature of solubility at a specific surfactant concentration.

[2] = Critical micelle concentration, air-water-surfactant system, pendant drop method; assay type: physicochemical; settings: 25° C., deionised water
Method: Concentrations that were evaluated for each surfactant varied depending on the solubility of the surfactant and the surface tension reduction observed during the analysis. The experiment was performed at 25° C. Deionised water (prepared using a Milli-Q system (Merck)) was used for each experiment. The pendant drop method was used to calculate the surface tension by using a Krüss DSA25. A drop of the solution was produced in the tip of a blunt metal needle (1.25 mm) until the drop reached its maximum size. After 10-15 seconds of equilibration, an image of the drop was captured using a digital camera. The drop was analyzed using the software Krüss EasyDrop Standard-Drop Shape Analysis (DSA1) v 1.92. The software uses the Young-Laplace equation to calculate the surface tension according to the drop deformation considering the effect of gravity and hydrostatic pressure. Critical micellar concentration (CMC) was obtained after plotting surface tension vs surfactant concentration. The CMC is calculated as the surfactant concentration where the initial straight line intersects the plateau in the graph.

protozoa microorganisms = assay type: cell-based; settings: 30° C., 24 h, OD 440 nm
Method: The toxicity of different surfactants was analysed using a Protoxkit supplied by microbiotests quantify the inhibition of growth of protozoa microorganisms in the presence of the surfactants. Using the standard protocol, a dilution series of toxicant was prepared by serial 1:1 dilution with distilled water. 2 mL of each solution is placed in a UV cuvette. An inoculum of Protozoa was diluted to reach an OD of 0.04 at 440 nm then 40 μL of inoculum was added along a solution of 40 μL of nutrients in each dilution vials. The initial OD was measured for each vial and the vial was then incubated at 30° C. for 24 h. Inhibition was measured by the comparing the variation of initial and final OD.

[3] = Foaming capacity (ISO 6964 with modifications); assay type: physicochemical; settings: 0.2% surfactant, 50° C., after 5 minutes; for Foam height, hard water: 200 ppm CaCl2
Method: Foaming capacity was evaluated following the protocol set out in ISO 6964, with some modifications. In each test, 700 mL of surfactant solution containing 0.2% surfactant was prepared using deionized water or a hard water solution of distilled water with 200 ppm of CaCl2. The solutions were prepared by agitating the components for 60 minutes at 50° C. After 60 minutes, 50 mL of solution was poured in a 1000 mL glass measuring cylinder, which was then placed in a water bath that was heated to 50° C. 600 mL of the surfactant solution was poured into a chromatography column fitted with a stainless-steel needle at the egress. The column was placed over the measuring cylinder so that the tip of the needle was […] from the surfactant solution in the measuring cylinder. 450 mL of surfactant solution were poured from the column into the measuring cylinder. After pouring the solution, foam height was measured at 30 sec, 3 min, 5 min and 15 min.

[4] = Resistance to hard water (ISO standard 1063); assay type: physicochemical; settings: for appearance of the solutions in hard water stability tests (in words): all calcium concentrations; for Mean Stability: class from total score according to Table 3; for Total Score: sum of 15 appearance scores, CaCl2 6, 9 and 12 m equivalent Ca/L, five aliquots of 50 mg/ml mother solution
Method: These measurements were made according the standard protocol reported in ISO standard 1063. Calcium chloride was used as cation source at concentrations of 6, 9 and 12 m equivalent Ca/L (3.0, 4.5, 6.0 mM). A mother solution of surfactant with 50 mg/ml concentration was prepared in water at 20° C. In a 50 ml falcon-tube, a defined aliquot of mother solution was transferred and diluted up to 50 ml with the calcium solution. Five different aliquots of surfactant mother solution were tested: 5.0, 2.5, 1.2, 0.6 and 0.3 ml. In every test, the appearance of the sample was inspected and assigned a score according to Table 2. The scores of the 15 tests for each surfactant were summed and the final result was expressed as mean stability according to Table 3.
• Opalescent is a solution not clear but which objects can be seen. Cloudy is a solution not clear which objects cannot be seen through.

[5] = Surface tension in octanol-water-surfactant system, drop volume method (ISO 9101 modified); assay type: physicochemical
Text: The drop volume method was used to calculate the surface tension in the system following the ISO standard 9101 with some modifications. In each experiment a drop of aqueous solution of surfactant was slowly formed in the tip of a needle (d=1.82 mm) submerged in octanol using a syringe connected at a Krüss DSA25 drop shape analyser instrument. The drop formation was allowed to grow as close as possible the maximum volume at which it would detach from the needle. At this point, the drop was left to stabilize for 2 minutes and then was detached from the needle by providing a small amount of additional solution. A photo of the drop leaving the needle was captured using the camera connected to the Krüss DSA25. The diameter of the drop was measured, and the surface tension was calculated using the following equation: […]
Where γ is the surface tension (mN/m), V is the drop volume (cm^3), Δρ is the difference of density between water and octanol (g/cm^3), g is the acceleration due to gravity (cm/s^2), d is the outer diameter of the needle (cm), and f is a correction factor calculated using the following equation: […]
Surface tension at concentration 2 times the CMC in deionised water (prepared using a Milli-Q system (Merck)) are summarized in Table 6. […] In FIG. 2 the drops formation of a water/surfactant solution in octanol have been reported for the SAF-8, SAF-12 and SDBS at a concentration of surfactant double of the CMC. The SAF-8 show the lower surface tension due mostly to the high concentration of surfactant used ([…]).
SAF-8 was evaluated using a concentration 2 times the CMC, while SAF-12 was evaluated at 2, 4 and 8 times the CMC.

[6] = tested on: E. coli in expressing the b-galactosidase; assay type: cell-based; settings: 37° C., 30 min, OD 600 nm
Method: The toxicity of different surfactants was analysed using a Toxi-Chromo test kit supplied by EBPI to quantify the inhibition of E. coli in expressing the b-galactosidase in the presence of the surfactants. Using the standard protocol, a mother solution containing 1000 ppm of a surfactant was prepared. The bacteria inoculum was mixed with a reaction mixture, nutrients supplied with the kit and the toxicant. A further 15 samples at containing different amounts of the surfactant were prepared in the well plate through subsequent dilutions. The chromogen supplied with the kit was added in each well and the well plate was then incubated at 37° C. for 30 min. The optical density (OD) was read at 600 nm using a plate reader. The % inhibition was measured by the OD variation (which is associated a blue colour development). EC50 was measured by plotting and fitting the % inhibition and surfactant concentration.

zein protein = assay: Zein solubilisation study; settings: 2 g zein, 40 ml of 0.5 wt % surfactant solution, 40° C., 12 h
Method: The applicability of surfactants in personal care products was studied by analysing their capacity to solubilise zein protein. In each test 2 g of zein protein was mixed with 40 ml of 0.5 wt % surfactant solution and the mixture was incubated at 40° C. for 12 h. The mixture was then centrifuged and the remaining solid zein was washed with 50 mL of water 5 times. The solid zein was dried for in an oven at 70° C. for 5 days and weighted. The zein solubilisation was evaluated as percentage of zein that was dissolved into the surfactant solution.

[7] = surfactant concentration 12.5 % weight in water
[8] = surfactant concentration 15 % weight in water
[9] = surfactant concentration 17.5 % weight in water
[10] = surfactant concentration 20 % weight in water
[11] = surfactant concentration 22.5 % weight in water
[12] = deionised water in octanol, concentration 2 times the CMC
[13] = hard water (500 ppm CaCl2) in octanol, 2 times the CMC

Structure (SMILES)	solubility in water (concentration solubilized) [1]	temperature at which dissolution was observed [1, 7]	temperature at which dissolution was observed [1, 8]	temperature at which dissolution was observed [1, 9]	temperature at which dissolution was observed [1, 10]	temperature at which dissolution was observed [1, 11]	CMC [2]	EC50, inhibition of growth of protozoa microorganisms (protozoa microorganisms)	Foam height, hard water [3]	Foam height, distilled water [3]	appearance of the solutions in hard water stability tests (in words) [4]	Mean Stability [4]	Total Score [4]	Surface tension [5, 12]	EC50, inhibition of E. coli in expressing the b-galactosidase [6]	Surface tension [5, 13]	% of zein dissolved (zein protein)	also measured
CCCCCCCCCCCCCCCCOC(=O)c1ccc(S(=O)(=O)O)o1 [SAF-16, Sulfonated Hexadecyl Furoate]	0.05%	>50 °C	>50 °C	>50 °C	>50 °C	>50 °C	60 ppm											solubility in water (in words) ([1]; comparison of surfactants): very low solubility
CCCCCCCCCCCCOS(=O)(=O)[O-].[Na+] [SDS, sodium dodecyl sulfate, reference compound]								85.71 ± 3.8 ppm	4.25 ± 0.4 mm	7.25 ± 0.4 mm	extensive precipitation in many tests	2 (19-37)	21	1.34 ± 0.28 mN/m	123.7 ± 5.2 ppm			behaviour in hard water (in words) ([5]; hard water (500 ppm CaCl2)): significant agglomeration
CCCCCCCCCCCCOC(=O)c1ccc(S(=O)(=O)O)o1 [SAF-12, Sulfonated Dodecyl Furoate]		20-25 °C	20-25 °C	20-25 °C	20-25 °C	<0 °C	521 ppm	49.65 ± 5 ppm	10.35 ± 0.5 mm	7.8 ± 0.4 mm	remained clear	5 (75)	75	3.42 mN/m	63.5 ± 2.8 ppm	4.51 ± 0.5 mN/m	15.3 ± 0.26%	temperature below which the surfactant would precipitate ([1]; 20% solution): below 20 °C; solubility in water (concentration soluble) ([1]; 24° C.): 20%; Surface tension ([5]; hard water (500 ppm CaCl2) in octanol, 4 times the CMC): 3.78 ± 0.45 mN/m; Surface tension ([5]; hard water (500 ppm CaCl2) in octanol, 8 times the CMC): 1.99 ± 0.27 mN/m
CCCCCCCCOC(=O)c1ccc(S(=O)(=O)O)o1 [SAF-8, Sulfonated Octyl Furoate]	up to 140%	<0 °C	<0 °C	<0 °C	<0 °C	<0 °C	1330 ppm	673 ± 10 ppm	5 ± 0.5 mm	2.5 ± 0.7 mm	remained clear	5 (75)	75	2.65 mN/m	292 ± 13 ppm	1.91 ± 0.25 mN/m	10.4 ± 0.98%	
